The values below come from paper PMC5642494 (Oncotarget, 2017).

Experiment [1] deals with pRb at S807/811. Briefly: Immunoblotting of phospho-Rb in ZR-75-1, T-47D and MCF7 cells. The experiment is classed as cell-based, human. Particulars: MCF7, T-47D, ZR-75-1 cells; 24 hours; 0.027 µM to 20 µM. The protocol:
Protein lysates were prepared from the cells and analyzed for the expression of various biomarkers by immunoblotting. The biomarkers included phosphor-Rb at serines 807/811,phosphorylation of serine 2 on the C-terminal repeat domain on RNA polymerase II (pCTD) and MCL1. Images of Western blots were cropped to denote the relevant band(s) for clarity. […] Ki-67 positive events were obtained by gating versus background signal.
A general note: A western blot detects proteins with antibodies after separation by electrophoresis.

Experiment [2] concerns ZR-75-1 xenograft. The experiment in a line: ZR-75-1 xenograft efficacy in NOD SCID mice. The experiment is classed as in vivo, mouse. As to the method:
Control animals were treated with vehicle (1% HEC/ 25 mM phosphate buffer, pH = 2) using the same schedule of dosing. The red bar just above the X-axis illustrates the duration of the treatment period. Tumor volume measurements were taken routinely during the course of the study and are plotted as mean +/- SEM versus days following tumor cell implantation. (B) Body weights were recorded routinely during the course of the study and are plotted as mean % change (+/– SEM) relative to the mean body weight recorded on the day just prior to the first day of dosing (baseline day = 27). (C) The waterfall plots indicate the relative tumor volumes for individual animals which were determined at the end of the dosing period (study day 55). […] Growth inhibition is observed in those instances where the calculated changes in %DT/C are less than 100% whereby greater inhibition results in smaller %DT/C values. Change in %DT/C values that are less than zero indicate regressions whereby the tumor volumes on day 55 are smaller than the baseline tumor volume measured on the day prior to the initiation of dosing (baseline day = day 27). […] The tumor volumes measured on day 27 served as the baseline volumes for the calculation of %DT/C. […] Potential CDK9 inhibition was assessed by measuring the expression of MCL1 or phosphorylation of serine 2 on the C-terminal domain repeat on RNA polymerase II (pCTD). […]

For experiment [3], the system named is HR+ and HR- breast cancer cell lines. Briefly: Proliferation after washouts (EdU Click-iT) in breast cancer lines. Type of experiment: cell-based, human. As to the method: Images were SA-β-galactosidase immunocytochemical labeling taken by fluorescent microscopy using a Leica DMiL. […] SA-β-gal Cell samples were lysed after treatment with expression was determined using the Senescence Cells 100 μL lysis buffer and transferred to a 96-well plate. Histochemical Staining Kit (Sigma, CS0030) following 30 μL of each sample were transferred into deep well the vendor 's manual. Images were taken at 100x by bright plates using TECAN-EVO Workstation. Samples were field microscopy (Leica DMiL). treated for derivatization of the metabolites of interest and internal standards. For this, 50 μL of derivatization reagent Proliferation studies after washouts (EdU Click- and 80 μL of internal standard (IS, SupplementaryTable iT®) 1), were added with multidrop, plates were vortexed for 5 mins and let sit for one hour at 4 °C. The IS used were the Cells were plated onto poly-D-lysine D or 13C-labeled commercial analogues of nine of the ten coated 96-well plates at a density of 2,000-6,000 metabolites, prepared at 25 μM in water (Supplementary viable cells per well, and treated with abemaciblib or Table 1). The derivatization reagents (from Sigma), […] washout schedule shown on Supplementary Figure 1A. […] EdU Samples were analyzed by LC-MS/MS under the detection was performed using the Click-iT High Content conditions described below. […] Cell images were captured using a Cellomics Arrayscan VTI and analyzed Analysis of the derivatized-extracted samples with the Target Activation bio-application V.3 reading in 4 was carried out with an Agilent 6460 Triple Quadrupole channels at a magnification of 10X. […] The software relative levels and sub-cellular localization of EdU were for data collection and treatment was Agilent Masshunter determined through the respective intensities and locations Workstation. Mobile phases for chromatography were: of Alexa-488 fluorescence. mobile phase A: formic acid (5 mM) and ammonium formate (10 mM) in water; mobile phase B: acetonitrile. […]

`CCN1CCN(Cc2ccc(Nc3ncc(F)c(-c4cc(F)c5nc(C)n(C(C)C)c5c4)n3)nc2)CC1` [abemaciclib, Abemaciclib]: in experiment [1], the “levels of phosphorylated Rb (pRb) at S807/811” value is listed as “decrease in levels of phosphorylated Rb”. Further, the tumor volume entry in experiment [2] (75 mg/kg PO QDx28, NOD SCID mice, ZR-75-1 xenograft) is “measured reduction in tumor volume (regression)”. The anti-tumor activity entry in experiment [2] (50 or 75 mg/kg PO QDx28, single agent) was “Dose-dependent anti-tumor activity”. The “DNA synthesis / proliferation as measured by EdU incorporation” value in experiment [3] (HR+ versus HR- breast cancer cell lines, exposure 2 hr, 24 hr or 72 hrs followed by washout) is “preferentially reduced in HR+ compared to HR- cell lines”. Besides, the “sensitivity of HR- cell lines with RB1 mutation or loss (EdU incorporation)” value in experiment [3] (MDA-MB-468, BT549, BT20, HCC1937, HCC70) was “insensitive”.
